± gives the standard deviation of the averaged measurements.
Key:
Assay in all cases: level (log10 ratio to DMSO vehicle control); higher = higher biomarker level / cell amount than vehicle control
Settings in all cases: in DMSO
[1] = compound: O=S(=O)(O)C(F)(F)C(F)(F)C(F)(F)C(F)(F)C(F)(F)C(F)(F)C(F)(F)C(F)(F)F [Potassium perfluorooctanesulfonate]
Procedure: (§1)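 BioMAP Diversity Plus panel of 12 human primary cell co-culture systems (3C, 4H, LPS, SAg, BT, BF4T, BE3C, CASM3C, HDF3CGF, KF3CT, MyoF, Mphg). Compounds were added 1 h before stimulation and left for 24 h (MyoF 48 h; BT 72 h for soluble read-outs or 6 d for IgG). Biomarkers were read by ELISA, cytotoxicity by SRB, PBMC viability and proliferation by Alamar Blue. Each well value was divided by the mean of 8 DMSO control wells on the same plate and log10 transformed; duplicate blinded samples were tested at 4 concentrations.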

[2] = compound: C=C(C)C(=O)OCC(F)(F)C(F)(F)C(F)(F)C(F)(F)C(F)(F)C(F)(F)C(F)(F)F
Procedure: as §1

[3] = compound: O=P(O)(O)CCC(F)(F)C(F)(F)C(F)(F)C(F)(F)C(F)(F)C(F)(F)C(F)(F)C(F)(F)F [((Perfluorooctyl)ethyl)phosphonic acid]
Procedure: as §1

Test System	level (log10) ([1]; 6700 nM)	level (log10) ([1]; 20000 nM)	level (log10) ([1]; 60000 nM)	level (log10) ([2]; 6700 nM)	level (log10) ([2]; 20000 nM)	level (log10) ([3]; 6700 nM)	level (log10) ([3]; 20000 nM)	level (log10) ([3]; 60000 nM)
BE3C:tPA	0.115 ± 0.0035	-0.101 ± 0.027	-0.165 ± 0.03	-0.013 ± 0.0014	0.007	0.123 ± 0.005	0.191 ± 0.0014	0.202 ± 0.032
HDF3CGF:PAI-I	0.0485 ± 0.0064	0.011 ± 0.021	-0.181 ± 0.18	0.011 ± 0.0099	0.0095 ± 0.019	-0.028 ± 0.035	-0.101 ± 0.06	-0.2695 ± 0.0021
HDF3CGF:TIMP-1	0.001 ± 0.024	-0.001 ± 0.016	0.097 ± 0.061	0.041 ± 0.038	0.036 ± 0.03	-0.03 ± 0.0057	-0.06 ± 0.018	-0.0575 ± 0.044
KF3CT:TIMP-2	-0.01 ± 0.013	0.002 ± 0.02	0.0145 ± 0.0078	0.0115 ± 0.018	-0.0195 ± 0.0064	0.0015 ± 0.0021	0.013 ± 0.018	-0.0345 ± 0.005
MyoF:CXCL8/IL-8	-0.006 ± 0.023	-0.0455 ± 0.023	-0.0385 ± 0.0035	-0.0215 ± 0.013	0.013 ± 0.014	0.0105 ± 0.026	0.025 ± 0.011	0.038 ± 0.0028
MyoF:PAI-I	0.003 ± 0.025	-0.006 ± 0.0014	-0.0065 ± 0.0064	0.0005 ± 0.011	0.005 ± 0.0042	-0.0215 ± 0.0092	-0.0075 ± 0.0064	-0.0285 ± 0.035
CASM3C:LDLR	0.021 ± 0.0014	0.0275 ± 0.019	-0.0205 ± 0.036	-0.0135 ± 0.0021	0.03 ± 0.024	-0.0075 ± 0.0021	-0.005 ± 0.0042	0.0505 ± 0.039
3C:CD142/Tissue Factor	-0.018 ± 0.024	-0.0065 ± 0.04	0.049 ± 0.02	-0.022 ± 0.058	-0.005 ± 0.051	0.025 ± 0.03	0.0455 ± 0.015	0.101 ± 0.023
BE3C:MMP-1	0.182 ± 0.038	0.157 ± 0.021	0.198 ± 0.012	0.02 ± 0.021	0.0655 ± 0.064	0.0705 ± 0.011	0.111 ± 0.018	0.125 ± 0.061
HDF3CGF:CXCL9/MIG	-0.024 ± 0.024	-0.017 ± 0.02	-0.116 ± 0.04	0.02 ± 0.024	0.0165 ± 0.015	0.102 ± 0.017	0.0505 ± 0.018	-0.0155 ± 0.061
lMphg:CCL2/MCP-1	-0.0275 ± 0.018	-0.013 ± 0.047	-0.0155 ± 0.026	-0.009 ± 0.021	0.008 ± 0.02	-0.0325 ± 0.0092	-0.059 ± 0.024	-0.039 ± 0.04
BE3C:SRB	-0.0075 ± 0.0021	-0.245 ± 0.034	-0.306 ± 0.033	-0.0015 ± 0.0021	-0.0025 ± 0.00071	-0.004	-0.011 ± 0.0085	0.0015 ± 0.015
MyoF:MMP-1	-0.04 ± 0.021	-0.047 ± 0.031	0.0305 ± 0.044	-0.0245 ± 0.0092	0.0025 ± 0.086	-0.036 ± 0.0085	0.007 ± 0.0085	0.0865 ± 0.04
HDF3CGF:Collagen III	-0.013 ± 0.0099	-0.0525 ± 0.042	-0.106 ± 0.017	-0.004 ± 0.0042	-0.0005 ± 0.0078	-0.119 ± 0.011	-0.193	-0.281 ± 0.029
HDF3CGF:M-CSF	0.0165 ± 0.0078	0.012 ± 0.0014	-0.151 ± 0.018	0.009 ± 0.033	0.0245 ± 0.03	0.0235 ± 0.016	-0.009 ± 0.0028	-0.113 ± 0.016
3C:CD54/ICAM-1	-0.001 ± 0.0071	0.0235 ± 0.005	0.046 ± 0.0071	0.019 ± 0.028	0.014 ± 0.018	-0.012 ± 0.014	-0.0185 ± 0.012	-0.021 ± 0.0085
HDF3CGF:SRB	-0.033 ± 0.052	-0.005 ± 0.052	-0.0695 ± 0.053	0.0255 ± 0.11	0.044 ± 0.12	0.0285 ± 0.021	-0.0095 ± 0.033	-0.011 ± 0.033
HDF3CGF:CD54/ICAM-1	-0.0015 ± 0.0064	-0.002 ± 0.014	-0.0525 ± 0.012	-0.008 ± 0.0085	-0.01 ± 0.014	-0.009 ± 0.0099	-0.0235 ± 0.015	-0.0625 ± 0.028

From the supplement of paper PMC10331698
